Experimental data as given in patent US6664231B1, “Anti-fungal peptides” (priority 1993, dated 2003).

Columns and labels:
Candida albicans = assay: Radial diffusion assay, Candida species (Table 2); type: cell-based; conditions: higher effective concentration of agarose than Table 1
[1] = test system: C. albicans (SLU-1 and other strains); type: cell-based, Candida albicans
Protocol: (§1) In additional experiments, a fluorescence-activated cell sorter (FACS) based assay was developed to test the fungicidal activity of the peptides. […] Difco) agar. Several colonies were picked from the agar plate and inoculated into 5 mL of Sabouraud's Dextrose media in a sterile 10 mL polypropylene tube. The fungal cultures were incubated for about 18 hours at 30° C. […] The culture were centrifuged at 3000 rpm for 5 minutes (Sorvall RT 6000B). After centrifugation, the supernatant was decanted leaving the fungal pellets in the centrifuge tubes. The pellets were resuspended in 15 mL of SDB. Both suspensions were combined into one tube and mixed to generate a stock culture. […] After determining the concentration of the stock, appropriate dilutions were made with Sabouraud's Dextrose media to obtain 100 mL of 1×10^6 cell/mL. […] After the 1 hour incubation, all the tubes were centrifuged at 3000 rpm for 5 minutes. […] Louis, Mo.) in Dulbecco's PBS (DPBS, GIBCO, Grand Island, N.Y.) except the autofluorescence control, which was resuspended in DPBS alone. The tubes were mixed and incubated in the dark at room temperature for at least 20 minutes. […] The settings were adjusted appropriately to the following approximate parameters: Cells were analyzed (10,000 cells/tube) and their respective fluorescence determined. […] The population of dead (i.e., propidium iodide stained) fungal cells was determined by a fluorescence threshold between the negative control and positive control.

[2] = test system: polyene-resistant (ATCC 38247), 5-fluorocytosine-resistant (ATCC 44373), azole-resistant (ATCC 62342), ketoconazole-resistant (ATCC 64124) C. albicans; assay: Fungicidal activity on commercially-available drug-resistant Candida strains; type: cell-based, Candida albicans; conditions: ATCC 38247, 44373, 62342, 64124
Protocol: Further experiments were performed to determine the anti-fungal activity of Domain III derived peptides on commercially-available strains of Candida considered resistant to other anti-fungal agents: polyene-resistant C. albicans (ATCC Accession No. 38247), 5-fluorocytosine-resistant C. albicans (ATCC No. 44373), azole-resistant C. albicans (ATCC No. 62342), and ketoconazole-resistant C. albicans (ATCC No. 64124).

[3] = test system: Candida albicans SLU-1 strain; assay: Serum stability, anti-fungal activity after serum incubation by radial diffusion bioassay; type: in vitro ADME, rat or human serum
Method in brief: (§2)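 Peptide at 1 mg/mL mixed with an equal volume of rat or human serum and held at 37° C. Samples taken at 0, 1, 2 and 4 h, extracted on C-18 solid phase, then analysed by HPLC, N-terminal sequencing and ESI/MS. Recovered peptides tested against C. albicans SLU-1 by radial diffusion.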

Candida glabrata = type: cell-based
Protocol: as §1

Candida lusitaniae = type: cell-based
Protocol: as §1

Candida parasilosis = type: cell-based
Protocol: as §1

[4] = Serum stability, anti-fungal activity after serum incubation by radial diffusion bioassay; type: in vitro ADME, rat or human serum; conditions: Activity in Serum t ½ (hr.)
Method in brief: as §2

[5] = type: physicochemical
Protocol: XMP.284 was soluble in water and unbuffered saline. XMP.284 was also soluble in 10 mM sodium phosphate, 150 mM sodium chloride pH 7. […] There was very little product loss, as measured by absorbance at 280 nm, in 0.15 M saline buffered with 10 mM acetate at pH 4, 5 or 6. […] Presently preferred is a formulation that includes 10 mM sodium acetate, 150 mM sodium chloride, pH 5.

Molecule | Anti-fungal activity: pmol/30 mm^2 zone, Candida albicans (Candida albicans) | Activity of peptides on C. albicans SLU-1, IC50 ([1]; Table 5, percentage of dead cells, 1 hour, 30° C.) [µg/mL] | Fungicidal activity on resistant strains [2] | Activity in Serum t ½ (hr.) [3] | Activity on various strains of C. albicans, IC50, 10231 ([1]; SLU-1 and other strains) [µg/mL] | Activity on various strains of C. albicans, IC50, 14053 ([1]; SLU-1 and other strains) [µg/mL] | Activity on various strains of C. albicans, IC50, 26555 ([1]; SLU-1 and other strains) [µg/mL] | Activity on various strains of C. albicans, IC50, 90028 ([1]; SLU-1 and other strains) [µg/mL] | Activity on various strains of C. albicans, IC50, SLU#1 ([1]; SLU-1 and other strains) [µg/mL] | Candida glabrata IC50 (Candida glabrata) [µg/mL] | Candida lusitaniae IC50 (Candida lusitaniae) [µg/mL] | Candida parasilosis IC50 (Candida parasilosis) [µg/mL] | half-life at 0.5 mg/mL [4] [h] | solubility in the phosphate buffer on heating [5] | solubility in water and unbuffered saline [5]
C[C@@H]1[C@H](O)[C@@H](C)/C=C/C=C/C=C/C=C/C=C/C=C/C=C/[C@H](O[C@@H]2O[C@H](C)[C@@H](O)[C@H](N)[C@@H]2O)C[C@@H]2O[C@](O)(C[C@@H](O)C[C@@H](O)[C@H](O)CC[C@@H](O)C[C@@H](O)CC(=O)O[C@H]1C)C[C@H](O)[C@H]2C(=O)O [Amphotericin B, amphotericin B, reference compound] | 11 pmol/30 mm^2 zone | 79.36 | – | – | – | – | – | – | – | – | – | – | – | – | –
H-KSKVGWLIQLFHKK-NH2 [XMP.13] | 2,233 pmol/30 mm^2 zone | – | not reduced | indefinite | – | – | – | – | – | – | – | – | – | – | –
H-SKVKWLIQLFHKK-NH2 [XMP.284] | – | – | – | – | 1.86 | 0.50 | 0.59 | 1.08 | 0.31 | 6.27 | 1.20 | 1.82 | 14.6 | remained soluble | soluble
